The values that follow come from ChEMBL document CHEMBL4145573, “Antinociceptive Diterpenoids from the Leaves and Twigs of Rhododendron decorum” (2018).

The structures appear in SMILES notation. The source made the active and inactive calls. The calls are words filed in the database; no cut-off is given here.

Assay [1] has as its system Mus musculus. The assay is described as follows: Antinociceptive activity in Kunming mouse assessed as inhibition of acetic acid-induced writhes at 10 mg/kg, ip pretreated for 15 mins followed by acetic acid challenge measured for 30 mins. Type of assay: functional, organism-based.
Assay [2] concerns Mus musculus. Kind of assay: Antinociceptive activity in Kunming mouse assessed as inhibition of acetic acid-induced writhes at 0.8 mg/kg, ip pretreated for 15 mins followed by acetic acid challenge measured for 30 mins relative to control. The assay is classed as functional.
Assay [3] deals with Mus musculus. The assay is described as follows: Antinociceptive activity in Kunming mouse assessed as inhibition of acetic acid-induced writhes at 0.08 mg/kg, ip pretreated for 15 mins followed by acetic acid challenge measured for 30 mins relative to control. Type of assay: functional.

Turning to `C=C1[C@@H]2[C@@H](O)[C@H](O)C(C)(C)[C@@]2(O)[C@H](O)C[C@@]23C[C@@](O)(CC[C@@H]12)[C@](C)(O)C3`, in the assay with Mus musculus [1], the inhibition result was “Active”. The same measure, in the same setting: the value for `C=C1[C@H]2CC[C@]3(O)C[C@@]2(C[C@@H](O)[C@@]2(O)[C@H]1C[C@H](O)C2(C)C)C[C@@]3(C)O` was “Active”. In the case of `C=C1C[C@]23C[C@H]1CC[C@H]2C(=C)[C@@H]1C[C@H](O[C@@H]2O[C@H](CO)[C@@H](O)[C@H](O)[C@H]2O)C(C)(C)[C@@]1(O)[C@H](O)C3`, in the assay on Mus musculus [1], the inhibition result is “Active”. Take `CN1CC[C@]23c4c5ccc(O)c4O[C@H]2[C@@H](O)C=C[C@H]3[C@H]1C5` [MORPHINE]: the inhibition in vivo at 0.8 mg/kg in the assay with Mus musculus [2] was 86%. As for `C=C1[C@H]2C[C@@H](O)C(C)(C)[C@H](O)[C@@H]2C[C@@]23C[C@@](O)(CC[C@@H]12)[C@](C)(O)C3`, the inhibition result in the assay with Mus musculus [1] is “Active”. Regarding `CC1(C)[C@H]2O[C@H]2[C@H]2[C@](C)(O)[C@@H]3CC[C@]4(O)C[C@@]3(C[C@@H](O)[C@@]21O)C[C@@]4(C)O`, in the assay on Mus musculus [3], the inhibition in vivo at 0.08 mg/kg is 78%. Take `CC1(C)[C@@H](O)[C@H](O)[C@H]2[C@](C)(O)[C@@H]3CC[C@]4(O)C[C@@]3(C[C@@H](O)[C@@]21O)C[C@@]4(C)O`: in the assay with Mus musculus [2], the inhibition in vivo at 0.8 mg/kg was 68%.
